Results taken from patent US20220372013A2, “PIPERIDINE-2,6-DIONE DERIVATIVES AND CROHN'S DISEASE TREATING” (Tianjin Hemay Pharmaceutical Sci-Tech Co., Ltd, priority 2016, published 2022).
Several values for one entry are separate records, joined by “and”; a condition that tells them apart may be missing. Identical values can stand only once.

Tested on: mice
Assay: Biological Example 5: acute toxicity experiment of single oral administration in mice
Assay type: in vivo
Settings: single oral 1000 mg/Kg, Mean ± SD
Description: The mice were fasted one day before the experiment. On the day of the experiment, 6 mice (ICR mice, body weight of 19-21 g, three females and three males) were selected in each experiment group. First of all, one female and one male were selected to orally give 1000 mg/Kg, and observed for 5-10 minutes. If there were no obvious side effects, the remaining 4 animals were orally given the same dose, and observed for 10-15 minutes. If no animal died, the animals were placed in a box to balancedly feed for 7 days. The state was observed and the body weight was recorded daily.
Observation Indexes within 0-15 Minutes after Administration
Activity: restlessness, hyperactivity
Nervous system response: tremor, spasm, convulsion, ataxia, posture abnormality, etc.
Autonomic nerve: exophthalmos, salivation, tears, urination (hematuria), diarrhea, piloerection, breathing, etc.
State of Animal: lethargy, hyperactivity, excitement, hair loss, diarrhea, abnormal behavior, death, etc.

Compound	Daily Body Weight (Female mice, Day 1) [g]	Daily Body Weight (Female mice, Day 2) [g]	Daily Body Weight (Female mice, Day 3) [g]	Daily Body Weight (Female mice, Day 4) [g]	Daily Body Weight (Female mice, Day 5) [g]	Daily Body Weight (Female mice, Day 6) [g]	Daily Body Weight (Female mice, Day 7) [g]	Daily Body Weight (Male mice, Day 1) [g]	Daily Body Weight (Male mice, Day 2) [g]	Daily Body Weight (Male mice, Day 3) [g]	Daily Body Weight (Male mice, Day 4) [g]	Daily Body Weight (Male mice, Day 5) [g]	Daily Body Weight (Male mice, Day 6) [g]	Daily Body Weight (Male mice, Day 7) [g]	also measured
COCCN1C(=O)CCC(N2C(=O)c3cccc(NC(C)=O)c3C2=O)C1=O (stereo not drawn) [Example 1, 4-acetylamino-2-(1-(2-methoxyethyl)-2,6-dioxopiperidin-3-yl)isoindolin-1,3-dione]	18.5 ± 0.1	22.8 ± 0.3	23.2 ± 0.7	24.0 ± 0.2	25.3 ± 1.6	25.7 ± 1.6	27.1 ± 1.1	20.1 ± 1.4	23.8 ± 1.4	24.9 ± 1.0	26.3 ± 1.2	27.7 ± 1.3	29.2 ± 1.4	29.4 ± 1.4	–
COCCN1C(=O)CCC(N2C(=O)c3cccc(N(C)C)c3C2=O)C1=O (stereo not drawn) [Example 3, 4-dimethylamino-2-(1-(2-methoxyethyl)-2,6-dioxopiperidin-3-yl)isoindolin-1,3-dione]	–	–	–	–	–	–	–	–	–	–	–	–	–	–	Daily Body Weight (Female mice, Day 1, 1000 mg/kg): 18.3 ± 0.4 g and 18.8 ± 0.4 g; Daily Body Weight (Female mice, Day 2, 1000 mg/kg): 21.7 ± 0.2 g and 22.1 ± 1.2 g; Daily Body Weight (Female mice, Day 3, 1000 mg/kg): 22.3 ± 0.2 g and 22.7 ± 0.8 g; Daily Body Weight (Female mice, Day 4, 1000 mg/kg): 22.6 ± 0.8 g and 23.0 ± 1.4 g; Daily Body Weight (Female mice, Day 5, 1000 mg/kg): 23.0 ± 1.4 g and 23.7 ± 1.9 g; Daily Body Weight (Female mice, Day 6, 1000 mg/kg): 22.6 ± 1.3 g and 24.1 ± 1.2 g; Daily Body Weight (Female mice, Day 7, 1000 mg/kg): 22.7 ± 0.4 g and 24.4 ± 1.8 g; Daily Body Weight (Male mice, Day 1, 1000 mg/kg): 18.8 ± 0.7 g and 18.0 ± 0.2 g; Daily Body Weight (Male mice, Day 2, 1000 mg/kg): 23.3 ± 0.1 g and 22.9 ± 0.3 g; Daily Body Weight (Male mice, Day 3, 1000 mg/kg): 24.3 ± 0.1 g and 24.3 ± 0.9 g; Daily Body Weight (Male mice, Day 4, 1000 mg/kg): 25.6 ± 0.7 g and 25.2 ± 1.1 g; Daily Body Weight (Male mice, Day 5, 1000 mg/kg): 26.9 ± 0.8 g and 27.0 ± 1.3 g; Daily Body Weight (Male mice, Day 6, 1000 mg/kg): 27.9 ± 0.9 g and 28.2 ± 1.9 g; Daily Body Weight (Male mice, Day 7, 1000 mg/kg): 28.6 ± 0.4 g and 28.5 ± 2.7 g
COCCN1C(=O)CCC(N2C(=O)c3ccc(F)c(N)c3C2=O)C1=O (stereo not drawn) [Example 9, 4-amino-5-fluoro-2-(1-(2-methoxyethyl)-2,6-dioxopiperidin-3-yl)isoindolin-1,3-dione]	17.5 ± 0.6	22.1 ± 0.9	22.1 ± 0.7	22.8 ± 0.8	22.8 ± 1.0	22.7 ± 1.6	23.6 ± 1.7	18.3 ± 0.7	23.6 ± 0.7	24.1 ± 1.0	25.9 ± 1.1	27.2 ± 0.5	26.9 ± 1.4	27.9 ± 1.5	–
CSCCN1C(=O)CCC(N2C(=O)c3cccc(N)c3C2=O)C1=O (stereo not drawn) [Example 11, 4-amino-2-(1-(2-methylthioethyl)-2,6-dioxopiperidin-3-yl)isoindolin-1,3-dione]	18.1 ± 0.2	21.7 ± 0.2	22.4 ± 0.1	22.4 ± 0.1	23.5 ± 0.4	23.2 ± 0.8	23.2 ± 0.9	19.5 ± 0.6	23.7 ± 0.8	25.4 ± 0.4	25.4 ± 0.4	27.0 ± 0.5	29.0 ± 0.7	29.8 ± 1.0	–
CS(=O)(=O)CCN1C(=O)CCC(N2C(=O)c3cccc(N)c3C2=O)C1=O (stereo not drawn) [Example 13, 4-amino-2-(1-(2-methylsulfonylethyl)-2,6-dioxopiperidin-3-yl)isoindolin-1,3-dione]	18.8 ± 1.1	21.3 ± 0.3	21.8 ± 0.4	21.8 ± 0.4	23.0 ± 0.5	23.2 ± 0.9	23.6 ± 0.9	19.6 ± 0.7	23.1 ± 0.6	24.4 ± 0.9	24.4 ± 0.9	26.5 ± 0.5	28.3 ± 1.3	28.4 ± 0.8	–
COCCCN1C(=O)CCC(N2C(=O)c3cccc(F)c3C2=O)C1=O (stereo not drawn) [Example 17, 4-fluoro-2-(1-(3-methoxypropyl)-2,6-dioxopiperidin-3-yl)isoindolin-1,3-dione]	18.6 ± 1.0	21.9 ± 0.4	22.7 ± 0.4	22.7 ± 0.4	23.0 ± 0.4	23.1 ± 1.0	22.7 ± 1.2	19.0 ± 0.7	24.0 ± 0.7	24.6 ± 0.8	24.6 ± 0.8	26.1 ± 0.7	28.1 ± 0.6	29.3 ± 1.0	–
COCCCN1C(=O)CCC(N2C(=O)c3ccc(N)cc3C2=O)C1=O (stereo not drawn) [Example 18, 5-amino-2-(1-(3-methoxypropyl)-2,6-dioxopiperidin-3-yl)isoindolin-1,3-dione]	18.4 ± 0.7	22.5 ± 0.8	23.8 ± 1.1	24.8 ± 1.5	24.8 ± 0.6	25.4 ± 0.7	25.2 ± 1.1	18.2 ± 0.4	23.0 ± 0.7	24.1 ± 0.4	25.6 ± 0.8	28.1 ± 1.1	29.0 ± 1.4	29.0 ± 1.0	–
CCOCCN1C(=O)CCC(N2C(=O)c3cccc(N)c3C2=O)C1=O (stereo not drawn) [Example 19, 4-amino-2-(1-(2-ethoxyethyl)-2,6-dioxopiperidin-3-yl)isoindolin-1,3-dione]	18.0 ± 0.6	20.7 ± 1.1	21.3 ± 0.6	22.8 ± 0.3	23.2 ± 0.7	23.3 ± 1.2	23.0 ± 1.7	18.9 ± 1.2	20.7 ± 1.1	21.3 ± 0.6	25.0 ± 2.0	24.8 ± 1.9	26.5 ± 1.9	27.7 ± 2.2	–
CCOCCN1C(=O)CCC(N2C(=O)c3cccc(F)c3C2=O)C1=O (stereo not drawn) [Example 20, 4-fluoro-2-(1-(2-ethoxyethyl)-2,6-dioxopiperidin-3-yl)isoindolin-1,3-dione]	18.7 ± 0.4	21.6 ± 1.0	22.1 ± 1.0	22.1 ± 1.0	23.0 ± 1.4	23.3 ± 0.2	23.7 ± 0.8	18.8 ± 1.0	24.0 ± 1.1	25.3 ± 1.2	25.3 ± 1.2	26.7 ± 1.2	29.0 ± 1.1	29.3 ± 0.7	–
